Substitutions are numbered along the chain they refer to. Values joined by “and” are separate entries in the source; they are usually repeats but may differ in a detail not shown here. Identical values can stand only once.
Assays:
wild type CYP2J2 = tested on: wild type CYP2J2; parameters: method as in PMID 17705402; conditions: docked model, WT; values previously reported ref 50; cited from earlier work
CYP2J2-R117E = target: T1, CYP2J2-R117E (Homo sapiens, UniProt P51589, R117E); test: biochemical
T1 sequence (P51589 1-502 R117E): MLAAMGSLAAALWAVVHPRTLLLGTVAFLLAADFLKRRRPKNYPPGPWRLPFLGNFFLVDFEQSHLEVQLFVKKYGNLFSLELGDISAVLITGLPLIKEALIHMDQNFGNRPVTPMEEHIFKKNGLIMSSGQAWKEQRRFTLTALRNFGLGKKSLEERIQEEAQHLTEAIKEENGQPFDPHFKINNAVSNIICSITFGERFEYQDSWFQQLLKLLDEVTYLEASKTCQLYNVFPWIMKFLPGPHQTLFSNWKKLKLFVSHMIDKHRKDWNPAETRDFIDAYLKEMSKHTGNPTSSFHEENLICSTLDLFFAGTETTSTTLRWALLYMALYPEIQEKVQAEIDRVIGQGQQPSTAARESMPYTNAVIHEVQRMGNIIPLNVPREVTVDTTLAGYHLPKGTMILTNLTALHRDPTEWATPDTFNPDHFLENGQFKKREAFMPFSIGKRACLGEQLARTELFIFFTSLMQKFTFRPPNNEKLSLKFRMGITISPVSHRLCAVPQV
Experimental: (§1) At t0 and regularly thereafter, aliquots (200 µL) were taken and the reaction was terminated by treatment with 100 µL of a cold CH3CN/CH3COOH (10:1) mixture. Proteins were precipitated by centrifugation for 10 min at 10,000 rpm, and the supernatant was analyzed by reverse-phase HPLC. […] The kinetic parameters correspond to initial rates that were measured under linear conditions for proteins and time.

wild-type CYP2J2 = target: T2, wild-type CYP2J2 (Homo sapiens, UniProt P51589); conditions: cited from earlier work
T2 sequence (P51589 1-502): T1 sequence (P51589 1-502 R117E) with E117R

CYP2J2-R117K = target: T3, CYP2J2-R117K (Homo sapiens, UniProt P51589, R117K); test: biochemical
T3 sequence (P51589 1-502 R117K): T1 sequence (P51589 1-502 R117E) with E117K
Experimental: as §1

Structure (SMILES) | Fe-C distance, α carbon of R group (wild type CYP2J2) [Å] | Fe-C distance, β carbon of R group (wild type CYP2J2) [Å] | Fe-C distance, γ carbon of R group (wild type CYP2J2) [Å] | IC50 (CYP2J2-R117E) | IC50 (wild-type CYP2J2) [nM] | IC50 (CYP2J2-R117K) [nM]
CCCc1ccc(C(=O)CCCN2CCC(C(O)(c3ccccc3)c3ccccc3)CC2)cc1 [Compound 2] | 4.9 | 3.8 | 4.6 | 1000 nM and 500 nM | 400 ± 100 | 1100 ± 200
CC(C)(C)c1ccc(CCCCN2CCC(C(O)(c3ccccc3)c3ccccc3)CC2)cc1 [Compound 3] |  |  |  | 2100 ± 400 nM | 3600 ± 700 | 8600 ± 200
CCCc1ccc(CCCCN2CCC(C(O)(c3ccccc3)c3ccccc3)CC2)cc1 [Compound 4] |  |  |  | 2900 ± 200 nM | 4500 ± 900 | 13200 ± 100
CC(C)(C)c1ccc(C(=O)CCCN2CCC(C(O)(c3ccccc3)c3ccccc3)CC2)cc1 [Terfenadone 1, Terfenadone] |  |  |  | 500 nM and 1000 nM | 700 ± 100 | ~1000

Source: publication PMC6073854, “Role of Arginine 117 in Substrate Recognition by Human Cytochrome P450 2J2” (International Journal of Molecular Sciences, 2018)
